Experimental data as given in patent US10689359B2, “Crystals of quinazoline derivative and preparation method therefor” (Xuanzhu Pharma Co., Ltd., priority 2015, dated 2020).

Columns and labels:
[1] = Comparison of stability between crystal forms and amorphous form, 60° C. uncovered, relevant substances by HPLC; type: physicochemical; settings: for Change in total relevant substances (conclusion): 60° C. uncovered, 5 days and 10 days
Procedure: Instrument: High Performance Liquid Chromatographic Instrument (Agilent 1260 series) Chromatographic column: chromatographic column using octylsilane chemically bonded silica as filler (HC-C8, 4.6×250 mm, 5 μm) Column temperature: 30° C. Detection wavelength: 230 nm Mobile phase: Mobile phase consisting of 0.06 mol/L sodium dihydrogen phosphate/0.06 mol/L sodium perchlorate solution-acetonitrile, and reversed-phase gradient elution was employed. Flow rate: 1.0 mL/min Injection volume: 10 μL

[2] = Study on stability of Crystal form I, II and III (influencing factors; character, moisture content, relevant substances by HPLC, XRPD); type: physicochemical; settings: for Stability of the samples (conclusion): influencing factor conditions (high temperature, high moisture, light)
Procedure: The samples were tested for character, relevant substances, moisture content, XRPD pattern, etc. […] The samples were tested for relevant substances, content, character, moisture content, XRPD pattern, etc. During the study, the uncovered experimental samples were kept in cultured dishes in the air. […] During the study, the uncovered experimental samples were kept in cultured dishes in the air. […] With respect to relevant substances, in accordance with High Performance Liquid Chromatography in Appendix V D in Pharmacopoeia of the People's Republic of China (2010), the samples were determined by area normalization method. Instrument: High Performance Liquid Chromatographic Instrument (Agilent 1200/1260 series) Chromatographic column: chromatographic column using octylsilane chemically bonded silica as filler (HC-C8, 4.6×250 mm, 5 μm) Column temperature: 30° C. Detection wavelength: 230 nm Mobile phase: mobile phase consisting of 0.03 mol/L diammonium hydrogen phosphate/0.03 mol/L sodium perchlorate solution-acetonitrile, and reversed-phase gradient elution was employed. Flow rate: 1.0 mL/min Injection volume: 10 μL Method for determining moisture content: the moisture content was determined in accordance with First Method for Determining Moisture Content B (Coulometric Titration) in Appendix VIII M in Pharmacopoeia of the People's Republic of China (2010).

[3] = Evaluation on pharmacokinetics in SD rats, intragastric administration; type: in vivo; settings: 5 mg/kg; for AUC0-t / AUCinf / Cmax (maximum blood concentration) / T1/2 (drug elimination half-life) / Tmax (time to maximum blood concentration): suspension in water
Procedure: An amorphous form of a compound of Formula (I), the preparation method of which could be found in the particular Examples as disclosed in the international patent application (Publication No. WO 2012027960 A1).
Test animal: SD rats, male, weighed 190-250 g, 6 rats for each crystal form, purchased from Beijing Vital River Laboratory Animal Technology Co., Ltd.
Administration route: intragastric administration, at an administration dose of 5 mg/kg, and an administration volume of 10 mL/kg.
Blood collection: whole blood (about 100 μL) was collected from tail vein 10 min, 30 min, 1 h, 2 h, 4 h, 6 h, 8 h, and 24 h after administration, and added to K2EDTA-containing anticoagulation tubes. The whole blood sample was centrifuged for 6 min at 4° C., 8000 rpm in a high speed centrifuge, and plasma was separated. Plasma needed to be prepared within 30 min after blood collection, and stored at −80° C. in a refrigerator.
Plasma sample analysis: the plasma samples were analyzed by protein precipitation: to plasma (20 μL), an internal standard Gefitinib (200 μL, 50 ng/mL acetonitrile solution) was added; the resultant mixture was vortexed at 500 rpm for 5 min, and centrifuged at 4000 rpm for 20 min in a high speed centrifuge; to the supernatant (100 μL), water (100 μL) was added; the resultant mixture was mixed homogeneously under vortexing and analyzed by LC-MS/MS for blood concentration.
Calculation for PK parameters: PK parameters were calculated by using Pharsight Phoenix 6.2 software.

[4] = 10 days, 40° C./RH75% uncovered
[5] = influencing factor condition for 10 days

In the case of C=CC(=O)Nc1cc2c(Nc3ccc(F)c(Cl)c3)ncnc2cc1OCC1CC2(CCN(C)CC2)C1 [Crystal form II, N-(4-((3-chloro-4-fluorophenyl)amino)-7-((7-methyl-7-azaspiro[3.5]nonan-2-yl)methoxy)quinazolin-6-yl)acrylamide], the Total relevant substances ([1]; 0 day) was 0.64%, the “Change in total relevant substances (conclusion)” value [1] was “little increase in total relevant substances” and the Total relevant substances ([1]; 60° C. uncovered-5 days) was 0.66%. For the same compound, the Total relevant substances ([1]; 60° C. uncovered-10 days) was 0.70%, the Character ([2]; 0 day) was “light yellow” and the Crystal form ([2]; 0 day) was “Crystal”. The Moisture content ([2]; 0 day) was 3.5%, the Relevant substance ([2]; 0 day) was 0.37% and the Character ([2]; 5 days, 40° C./RH75% covered) was “light yellow”. The Crystal form ([2]; 5 days, 40° C./RH75% covered) was “the same”, the Moisture content ([2]; 5 days, 40° C./RH75% covered) was 3.6% and the Relevant substance ([2]; 5 days, 40° C./RH75% covered) was 0.34%. For the same compound, the Character ([2]; 5 days, 40° C./RH75% uncovered) was “light yellow”, the Crystal form ([2]; 5 days, 40° C./RH75% uncovered) was “the same” and the Moisture content ([2]; 5 days, 40° C./RH75% uncovered) was 3.7%. For the same compound, the Relevant substance ([2]; 5 days, 40° C./RH75% uncovered) was 0.38%, the Character ([2]; 5 days, 60° C. covered) was “light yellow” and the Crystal form ([2]; 5 days, 60° C. covered) was “the same”. For the same compound, the Moisture content ([2]; 5 days, 60° C. covered) was 3.6%, the Relevant substance ([2]; 5 days, 60° C. covered) was 0.33% and the Character ([2]; 5 days, 60° C. uncovered) was “light yellow”. The Crystal form ([2]; 5 days, 60° C. uncovered) was “the same”, the Moisture content ([2]; 5 days, 60° C. uncovered) was 3.6% and the Relevant substance ([2]; 5 days, 60° C. uncovered) was 0.35%. The Character ([2]; 5 days, RH-75%) was “light yellow”, the Crystal form ([2]; 5 days, RH-75%) was “the same” and the Moisture content ([2]; 5 days, RH-75%) was 3.6%. The Relevant substance ([2]; 5 days, RH-75%) was 0.35%, the Character ([2]; 5 days, RH-92.5%) was “light yellow” and the Crystal form ([2]; 5 days, RH-92.5%) was “the same”. The Moisture content ([2]; 5 days, RH-92.5%) was 3.7%, the Relevant substance ([2]; 5 days, RH-92.5%) was 0.36% and the Character ([2]; 5 days, light) was “light yellow”. For the same compound, the Crystal form ([2]; 5 days, light) was “the same”, the Moisture content ([2]; 5 days, light) was 3.7% and the Relevant substance ([2]; 5 days, light) was 0.35%. The Character ([2]; 10 days, 40° C./RH75% covered) was “light yellow”, the Crystal form ([2]; 10 days, 40° C./RH75% covered) was “the same” and the Moisture content ([2]; 10 days, 40° C./RH75% covered) was 3.6%. The Relevant substance ([2]; 10 days, 40° C./RH75% covered) was 0.33%, the Character [2, 4] was “light yellow” and the Crystal form [2, 4] was “the same”. For the same compound, the Moisture content [2, 4] was 3.8%, the Relevant substance [2, 4] was 0.33% and the Character ([2]; 10 days, 60° C. covered) was “light yellow”. For the same compound, the Crystal form ([2]; 10 days, 60° C. covered) was “the same”, the Moisture content ([2]; 10 days, 60° C. covered) was 3.7% and the Relevant substance ([2]; 10 days, 60° C. covered) was 0.36%. For the same compound, the Character ([2]; 10 days, 60° C. uncovered) was “light yellow”, the Crystal form ([2]; 10 days, 60° C. uncovered) was “the same” and the Moisture content ([2]; 10 days, 60° C. uncovered) was 3.7%. The Relevant substance ([2]; 10 days, 60° C. uncovered) was 0.43%, the Character ([2]; 10 days, RH-75%) was “light yellow” and the Crystal form ([2]; 10 days, RH-75%) was “the same”. The Moisture content ([2]; 10 days, RH-75%) was 3.7%, the Relevant substance ([2]; 10 days, RH-75%) was 0.36% and the Character ([2]; 10 days, RH-92.5%) was “light yellow”. For the same compound, the Crystal form ([2]; 10 days, RH-92.5%) was “the same”, the Moisture content ([2]; 10 days, RH-92.5%) was 3.7% and the Relevant substance ([2]; 10 days, RH-92.5%) was 0.34%. The Character ([2]; 10 days, light) was “light yellow”, the Crystal form ([2]; 10 days, light) was “the same” and the Moisture content ([2]; 10 days, light) was 3.7%. The Relevant substance ([2]; 10 days, light) was 0.35%, the “Change in Crystal form (XRPD pattern test)” value [2, 5] was “no change” and the Change in impurities [2, 5] was “no significant change”. The “Stability of the samples (conclusion)” value ([2]; 10 days) was “relatively stable”, the “Pharmacokinetic properties (conclusion)” value [3] was “good pharmacokinetic properties” and the AUC0-t [3] was 1536 ng·h/mL. The AUCinf [3] was 1591 ng·h/mL, the “Cmax (maximum blood concentration)” value [3] was 135 ng/mL and the “T1/2 (drug elimination half-life)” value [3] was 4.59 h. The “Tmax (time to maximum blood concentration)” value [3] was 3 h.

With C=CC(=O)Nc1cc2c(Nc3ccc(F)c(Cl)c3)ncnc2cc1OCC1CC2(CCN(C)CC2)C1 [Crystal form III, N-(4-((3-chloro-4-fluorophenyl)amino)-7-((7-methyl-7-azaspiro[3.5]nonan-2-yl)methoxy)quinazolin-6-yl)acrylamide] the Total relevant substances ([1]; 0 day) was 0.81%, the “Change in total relevant substances (conclusion)” value [1] was “little increase in total relevant substances” and the Total relevant substances ([1]; 60° C. uncovered-5 days) was 1.1%. For the same compound, the Total relevant substances ([1]; 60° C. uncovered-10 days) was 2.0%, the Character ([2]; 0 day) was “light yellow powder” and the Moisture content ([2]; 0 day) was 3.5%. For the same compound, the Total relevant substances ([2]; 0 day) was 0.66%, the “Increase of total relevant substances” value ([2]; 60° C. uncovered, 5 days vs Day 0) was 0.28% and the “Increase of total relevant substances” value ([2]; 60° C. uncovered, 10 days vs Day 0) was 0.44%. For the same compound, the Character ([2]; 5 days, 40° C./RH75% covered) was “light yellow powder”, the Moisture content ([2]; 5 days, 40° C./RH75% covered) was 3.6% and the Total relevant substances ([2]; 5 days, 40° C./RH75% covered) was 0.57%. For the same compound, the Character ([2]; 5 days, 40° C./RH75% uncovered) was “light yellow powder”, the Moisture content ([2]; 5 days, 40° C./RH75% uncovered) was 3.9% and the Total relevant substances ([2]; 5 days, 40° C./RH75% uncovered) was 0.63%. The Character ([2]; 5 days, 60° C. covered) was “light yellow powder”, the Moisture content ([2]; 5 days, 60° C. covered) was 3.6% and the Total relevant substances ([2]; 5 days, 60° C. covered) was 0.60%. For the same compound, the Character ([2]; 5 days, 60° C. uncovered) was “light yellow powder”, the Moisture content ([2]; 5 days, 60° C. uncovered) was 3.5% and the Total relevant substances ([2]; 5 days, 60° C. uncovered) was 0.94%. The Character ([2]; 5 days, RH-75%) was “light yellow powder”, the Moisture content ([2]; 5 days, RH-75%) was 4.0% and the Total relevant substances ([2]; 5 days, RH-75%) was 0.62%. The Character ([2]; 5 days, RH-92.5%) was “light yellow powder”, the Moisture content ([2]; 5 days, RH-92.5%) was 4.0% and the Total relevant substances ([2]; 5 days, RH-92.5%) was 0.58%. The Character ([2]; 5 days, visible light) was “light yellow powder”, the Moisture content ([2]; 5 days, visible light) was 3.7% and the Total relevant substances ([2]; 5 days, visible light) was 0.68%. For the same compound, the Character ([2]; 10 days, 40° C./RH75% covered) was “light yellow powder”, the Moisture content ([2]; 10 days, 40° C./RH75% covered) was 3.6% and the Total relevant substances ([2]; 10 days, 40° C./RH75% covered) was 0.59%. The Character [2, 4] was “light yellow powder”, the Moisture content [2, 4] was 3.9% and the Total relevant substances [2, 4] was 0.62%. The Character ([2]; 10 days, 60° C. covered) was “light yellow powder”, the Moisture content ([2]; 10 days, 60° C. covered) was 3.5% and the Total relevant substances ([2]; 10 days, 60° C. covered) was 0.64%. For the same compound, the Character ([2]; 10 days, 60° C. uncovered) was “light yellow powder”, the Moisture content ([2]; 10 days, 60° C. uncovered) was 3.4% and the Total relevant substances ([2]; 10 days, 60° C. uncovered) was 1.1%. For the same compound, the Character ([2]; 10 days, RH-75%) was “light yellow powder”, the Moisture content ([2]; 10 days, RH-75%) was 3.8% and the Total relevant substances ([2]; 10 days, RH-75%) was 0.56%. The Character ([2]; 10 days, RH-92.5%) was “light yellow powder”, the Moisture content ([2]; 10 days, RH-92.5%) was 4.3% and the Total relevant substances ([2]; 10 days, RH-92.5%) was 0.60%. For the same compound, the Character ([2]; 10 days, UV light) was “light yellow powder”, the Moisture content ([2]; 10 days, UV light) was 3.8% and the Total relevant substances ([2]; 10 days, UV light) was 0.70%. For the same compound, the “Stability of the samples (conclusion)” value ([2]; 10 days) was “good stability”, the “Pharmacokinetic properties (conclusion)” value [3] was “good pharmacokinetic properties” and the AUC0-t [3] was 1324 ng·h/mL. The AUCinf [3] was 1340 ng·h/mL, the “Cmax (maximum blood concentration)” value [3] was 134 ng/mL and the “T1/2 (drug elimination half-life)” value [3] was 3.35 h. The “Tmax (time to maximum blood concentration)” value [3] was 4 h.
